The values below come from patent publication US20240270698A2, “NOVEL PYRIMIDINE DERIVATIVE AND USE THEREOF” (KOREA RESEARCH INSTITUTE OF CHEMICAL TECHNOLOGY, priority 2019, published 2024).

One data set deals with HS746T cancer cells. The data set can be described thus: Anticancer activity, cell viability by CCK-8, HS746T. Type of data set: cell-based. As to conditions: 72 hours. Summed up: (§1)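 HS746T or HepG2 cells seeded at 4,000 cells/well, left 24 h, then exposed to compounds for 72 h. Viability measured by CCK-8 and expressed as % of untreated control.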
Data set [1] concerns the target T1, human recombinant LRRK2 protein (Homo sapiens, UniProt Q5S007).
T1 construct: purchased Eurofins
Briefly: LRRK2 kinase activity assay (Eurofins, gamma-33P-ATP, filtermat scintillation counting). Type of data set: biochemical. The following applies: human recombinant LRRK2, 40 minutes at room temperature.

The test system of a further data set is HepG2 cancer cells. Briefly: Anticancer activity, cell viability by CCK-8, HepG2. In kind it is cell-based. The following applies: HepG2, 10 μM, 72 hours. Summed up: as §1
Data set [2] addresses T2, human recombinant MLK3 protein (Homo sapiens, UniProt Q16584).
T2 construct: purchased Eurofins
The data set can be described thus: MLK3 kinase activity assay (Eurofins, gamma-33P-ATP, filtermat scintillation counting). Type of data set: biochemical. As to conditions: human recombinant MLK3, 120 minutes at room temperature.

T1 sequence (Q5S007 whole entry): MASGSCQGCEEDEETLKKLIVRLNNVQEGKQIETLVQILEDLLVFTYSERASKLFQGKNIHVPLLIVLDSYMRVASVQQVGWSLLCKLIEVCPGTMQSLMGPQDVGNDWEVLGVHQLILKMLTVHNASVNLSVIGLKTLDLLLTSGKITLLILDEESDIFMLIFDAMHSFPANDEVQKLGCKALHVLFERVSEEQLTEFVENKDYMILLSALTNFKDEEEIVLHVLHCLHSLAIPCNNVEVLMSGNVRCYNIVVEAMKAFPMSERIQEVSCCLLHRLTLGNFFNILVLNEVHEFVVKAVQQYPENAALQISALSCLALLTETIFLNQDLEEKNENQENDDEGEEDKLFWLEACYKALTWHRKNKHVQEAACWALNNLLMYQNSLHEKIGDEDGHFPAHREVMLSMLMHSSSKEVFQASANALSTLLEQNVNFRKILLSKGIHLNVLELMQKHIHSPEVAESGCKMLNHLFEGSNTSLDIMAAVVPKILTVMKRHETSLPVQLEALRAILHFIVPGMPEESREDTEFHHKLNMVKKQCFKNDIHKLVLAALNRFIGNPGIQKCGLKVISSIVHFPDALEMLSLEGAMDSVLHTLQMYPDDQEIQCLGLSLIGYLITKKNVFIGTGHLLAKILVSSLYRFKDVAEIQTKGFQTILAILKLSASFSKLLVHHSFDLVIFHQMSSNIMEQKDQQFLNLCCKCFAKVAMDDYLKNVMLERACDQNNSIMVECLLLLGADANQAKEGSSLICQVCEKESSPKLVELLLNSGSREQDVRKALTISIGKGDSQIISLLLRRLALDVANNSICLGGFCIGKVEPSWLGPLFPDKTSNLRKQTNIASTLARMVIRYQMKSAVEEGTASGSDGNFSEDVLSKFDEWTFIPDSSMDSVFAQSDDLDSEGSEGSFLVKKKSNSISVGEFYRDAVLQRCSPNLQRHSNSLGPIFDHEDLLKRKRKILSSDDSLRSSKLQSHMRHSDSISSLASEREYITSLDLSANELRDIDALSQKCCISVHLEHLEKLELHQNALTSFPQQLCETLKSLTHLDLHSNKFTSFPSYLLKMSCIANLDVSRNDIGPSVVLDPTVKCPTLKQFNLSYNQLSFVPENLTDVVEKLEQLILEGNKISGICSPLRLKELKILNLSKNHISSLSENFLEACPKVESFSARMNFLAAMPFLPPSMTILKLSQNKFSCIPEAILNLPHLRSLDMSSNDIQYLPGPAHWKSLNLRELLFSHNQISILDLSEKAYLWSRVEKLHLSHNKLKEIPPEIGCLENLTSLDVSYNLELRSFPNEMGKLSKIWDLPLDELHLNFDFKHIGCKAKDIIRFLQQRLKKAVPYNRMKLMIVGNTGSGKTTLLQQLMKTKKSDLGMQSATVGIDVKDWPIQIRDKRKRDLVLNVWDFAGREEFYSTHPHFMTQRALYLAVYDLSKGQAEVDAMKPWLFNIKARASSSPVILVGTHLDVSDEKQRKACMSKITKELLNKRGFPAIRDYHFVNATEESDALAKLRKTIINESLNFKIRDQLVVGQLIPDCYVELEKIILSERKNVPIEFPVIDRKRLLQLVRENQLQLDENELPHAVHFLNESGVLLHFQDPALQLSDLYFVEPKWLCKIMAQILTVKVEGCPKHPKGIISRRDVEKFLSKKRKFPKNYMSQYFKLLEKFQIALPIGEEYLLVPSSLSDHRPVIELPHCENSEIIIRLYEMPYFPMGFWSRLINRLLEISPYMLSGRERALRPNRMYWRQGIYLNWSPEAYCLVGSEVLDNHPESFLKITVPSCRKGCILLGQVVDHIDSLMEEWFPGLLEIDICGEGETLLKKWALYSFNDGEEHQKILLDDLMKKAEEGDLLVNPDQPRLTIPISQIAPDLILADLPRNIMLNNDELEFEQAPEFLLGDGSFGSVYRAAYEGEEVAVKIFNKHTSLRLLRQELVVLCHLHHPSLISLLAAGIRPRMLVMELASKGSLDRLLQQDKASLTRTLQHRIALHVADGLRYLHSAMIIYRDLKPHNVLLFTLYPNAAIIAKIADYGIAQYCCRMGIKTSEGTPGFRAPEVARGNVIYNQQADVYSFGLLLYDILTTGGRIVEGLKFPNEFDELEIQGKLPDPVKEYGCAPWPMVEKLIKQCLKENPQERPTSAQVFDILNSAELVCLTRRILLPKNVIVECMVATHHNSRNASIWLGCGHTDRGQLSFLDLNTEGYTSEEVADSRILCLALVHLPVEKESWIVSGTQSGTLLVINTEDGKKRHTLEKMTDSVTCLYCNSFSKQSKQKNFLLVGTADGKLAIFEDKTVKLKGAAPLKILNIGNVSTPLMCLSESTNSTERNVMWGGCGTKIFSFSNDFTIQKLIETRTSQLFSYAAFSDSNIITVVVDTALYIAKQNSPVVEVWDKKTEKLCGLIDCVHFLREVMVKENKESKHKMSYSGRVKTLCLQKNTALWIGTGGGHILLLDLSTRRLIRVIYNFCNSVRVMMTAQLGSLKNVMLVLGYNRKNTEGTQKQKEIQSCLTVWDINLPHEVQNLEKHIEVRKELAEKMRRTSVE
T2 sequence (Q16584 whole entry): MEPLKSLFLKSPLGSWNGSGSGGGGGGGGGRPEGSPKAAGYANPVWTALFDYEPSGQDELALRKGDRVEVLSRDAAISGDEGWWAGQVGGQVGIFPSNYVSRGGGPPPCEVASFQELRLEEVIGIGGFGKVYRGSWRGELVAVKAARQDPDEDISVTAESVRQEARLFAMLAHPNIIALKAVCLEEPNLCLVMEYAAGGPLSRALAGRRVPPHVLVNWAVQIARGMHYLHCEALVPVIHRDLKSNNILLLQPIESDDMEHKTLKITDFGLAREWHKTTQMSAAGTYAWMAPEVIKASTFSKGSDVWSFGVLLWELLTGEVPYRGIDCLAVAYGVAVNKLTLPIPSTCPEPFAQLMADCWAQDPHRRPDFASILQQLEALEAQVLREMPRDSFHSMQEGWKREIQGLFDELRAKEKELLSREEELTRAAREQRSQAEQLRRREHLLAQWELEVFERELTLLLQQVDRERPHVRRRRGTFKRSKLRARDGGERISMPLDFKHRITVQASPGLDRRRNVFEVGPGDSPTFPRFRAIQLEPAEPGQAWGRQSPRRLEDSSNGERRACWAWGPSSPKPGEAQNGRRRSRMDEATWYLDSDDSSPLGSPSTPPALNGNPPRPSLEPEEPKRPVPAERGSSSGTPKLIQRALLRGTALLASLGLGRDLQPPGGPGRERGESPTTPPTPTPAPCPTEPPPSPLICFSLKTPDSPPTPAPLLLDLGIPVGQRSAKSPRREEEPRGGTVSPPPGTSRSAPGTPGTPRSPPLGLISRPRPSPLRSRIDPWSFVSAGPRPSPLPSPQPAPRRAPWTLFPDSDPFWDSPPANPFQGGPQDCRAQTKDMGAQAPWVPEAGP

What is called IC50 is the concentration that inhibits the measured activity by half. For the compound `CC1(C)CN(C(=O)C(F)(F)F)Cc2cc(Nc3ncc(Cl)c(Nc4ccccc4P(C)(C)=O)n3)ccc21` [compound 50, 1-(7-((5-Chloro-4-((2-(dimethylphosphoryl)phenyl)amino)pyrimidin-2-yl)amino)-4,4-dimethyl-3,4-dihydroisoquinolin-2(1H)-yl)-2,2,2-trifluoroethan-1-one], the “Cell viability (% of Con. 10 μM) HS746T” value in the data set with HS746T cancer cells is on record as 2 % of Con. Besides, the IC50 in data set [1] and in data set [2] was 1 to 10 nM each time. Moreover, in the data set on HepG2 cancer cells, the “Cell viability (% of Con. 10 μM) HepG2” value was 20 % of Con.
On to `CC(=O)N1CC=C(c2n[nH]c3ccc(Nc4ncc(Cl)c(Nc5ccccc5P(C)(C)=O)n4)cc23)CC1` [compound 99, 1-(4-(5-((5-Chloro-4-((2-(dimethylphosphoryl)phenyl)amino)pyrimidin-2-yl)amino)-1H-indazol-3-yl)-3,6-dihydropyridin-1(2H)-yl)ethan-1-one], for which the “Cell viability (% of Con. 10 μM) HS746T” value in the data set on HS746T cancer cells is on record as 9 % of Con. The IC50 in data set [1] and in data set [2] was 1 to 10 nM each time. In the data set on HepG2 cancer cells, the “Cell viability (% of Con. 10 μM) HepG2” value was 26 % of Con.
Consider `CP(C)(=O)c1ccccc1Nc1nc(Nc2cnc3ccccc3c2)ncc1Cl` [compound 19, (2-((5-Chloro-2-(quinolin-3-ylamino)pyrimidin-4-yl)amino)phenyl) dimethylphosphine oxide], for which, in the data set on HS746T cancer cells, the “Cell viability (% of Con. 10 μM) HS746T” value is reported as 25 % of Con. Further, the IC50 in data set [1] and in data set [2] was 10 to 100 nM each time. Moreover, in the data set with HepG2 cancer cells, the “Cell viability (% of Con. 10 μM) HepG2” value was 34 % of Con.
With `CP(C)(=O)c1ccccc1Nc1nc(Nc2ccc3[nH]nc(-c4cccc(O)c4)c3c2)ncc1Cl` [compound 118, (2-((5-chloro-2-((3-(3-hydroxyphenyl)-1H-indazol-5-yl)amino)pyrimidin-4-yl)amino)phenyl)dimethylphosphine oxide], the “Cell viability (% of Con. 10 μM) HS746T” value with HS746T cancer cells was 5 % of Con. For the same compound, the results for the half-maximal inhibitory concentration (IC50) in data set [1] and in data set [2] were 10 to 100 nM and 1 to 10 nM, respectively. For the same compound, the “Cell viability (% of Con. 10 μM) HepG2” value in the data set with HepG2 cancer cells was 43 % of Con.
The corresponding values for `CP(C)(=O)c1ccccc1Nc1nc(Nc2ccc3[nH]nc(-c4ccc(S(C)(=O)=O)cc4)c3c2)ncc1Cl` [compound 114, (2-((5-Chloro-2-((3-(4-(methylsulfonyl)phenyl)-1H-indazol-5-yl)amino)pyrimidin-4-yl)amino)phenyl)dimethylphosphine oxide] are 33 % of Con, 10 to 100 nM, 1 to 10 nM and 68 % of Con.
The corresponding values for `Cc1cccc2sc(Nc3ncc(Cl)c(Nc4ccccc4P(C)(C)=O)n3)nc12` [compound 27, (2-((5-Chloro-2-((4-methylbenzo[d]thiazol-2-yl)amino)pyrimidin-4-yl)amino)phenyl)dimethylphosphine oxide] are 74 % of Con, > 1000 nM, 100 to 1000 nM and 81 % of Con.
